Key:
mice = experiment: Analgesic Activity - Mouse Writhing Method (0.5% acetic acid IP); assay type: in vivo; conditions: for Ave. No. of Writhes/Mouse (±S.D.): 20 minute period, control saline 34.8 (8.8)
Protocol: Analgesic Activity of 10 (N-Methyl-4-Piperidylidene)-10H[1]-Benzopyrano[3,2-b]-Pyridine -- Mouse Writhing Method
Modified method of Whittle (Brit. J. Pharmacol. 1964, 22:246) -- Groups of 5 mice administered various dose-levels of the compound 30 minutes prior to the IP injection of 0.5% acetic acid (0.4 ml). Writhing counted for a 20 minute period following the acid injection.

[1] = system: reverse passive Arthus reaction; experiment: Reverse Passive Arthus Reaction (inhibition of the inflammatory lesion area); conditions: for % Inhibition of the Inflammatory Lesion Area: lesion excised 4 hours after Anti-B.S.A.
[2] = system: Carrageenin Induced Rat Paw Edema; experiment: Carrageenin Induced Rat Paw Edema; assay type: in vivo, male Sprague-Dawley rats; conditions: for % INCREASE IN PAW SIZE OVER NORMAL: 3 hr. reading, 0.5% MC control 89.3%
Protocol: Carrageenin Induced Rat Paw Edema
The carrageenin induced rat paw edema test of Winter, et al. (Proc. Soc. Exp. Biol. and Med., 1962, 111:544) and modified by Van Arman, et al. (J. Pharmacol. Exp. Therap., 1965, 150:328) is used as a primary test for anti-inflammatory activity.
Groups of male Sprague-Dawley rats weighing 160-220 grams are used to compare various dose levels of the test compound to control animals. The compound is administered orally to the respective groups 1 hour prior to a sub-plantar injection into the left hind paw with 0.1 ml of a 1.5% suspension of carrageenin in saline. The paws are measured volumetrically by mercury displacement prior to (normal paw), 1.5, 3 and 5 hours after the carrageenin injection.
Activity is calculated as the percent difference (inhibition) between the increases in paw size (edema) of the test groups compared to the control groups.

With “10 (N-methyl-4-piperidylidene)-10H[1]-benzopyrano[3,2-b]-pyridine [A-45637]” the “Ave. No. of Writhes/Mouse (±S.D.)” value (mice; 10 mg/kg oral) was 31.4 (16.7) Writhes/Mouse, the “% Inhibition” value (mice; 10 mg/kg oral, writhing, mice) was 9.8% and the “Ave. No. of Writhes/Mouse (±S.D.)” value (mice; 20 mg/kg oral) was 18.0 (8.3) Writhes/Mouse. The “% Inhibition” value (mice; 20 mg/kg oral, writhing, mice) was 48.3%, the “Ave. No. of Writhes/Mouse (±S.D.)” value (mice; 40 mg/kg oral) was 15.8 (8.0) Writhes/Mouse and the “% Inhibition” value (mice; 40 mg/kg oral, writhing, mice) was 54.6%. The “Ave. No. of Writhes/Mouse (±S.D.)” value (mice; 80 mg/kg oral) was 6.6 (4.6) Writhes/Mouse, the “% Inhibition” value (mice; 80 mg/kg oral, writhing, mice) was 81.0% and the ED50 (mice; P.O., mice, writhing, 95% CL (10.9-98.0)) was 29.7 mg/kg. The “% Inhibition of the Inflammatory Lesion Area” value ([1]; 0.75 mg/kg PO, rat) was 43.2%, the “% Inhibition of the Inflammatory Lesion Area” value ([1]; 1.5 mg/kg PO, rat) was 64.4% and the “% Inhibition of the Inflammatory Lesion Area” value ([1]; 2.5 mg/kg PO, rat) was 70.9%. The “% Inhibition of the Inflammatory Lesion Area” value ([1]; 5 mg/kg PO, rat) was 81.2%, the “% Inhibition of the Inflammatory Lesion Area” value ([1]; 10 mg/kg PO, rat) was 82.9% and the “Calculated ED50 value” ([1]; PO, rat, printed limits (.07, 1.5)) was 0.78 mg/kg. For the same compound, the “% INCREASE IN PAW SIZE OVER NORMAL” value ([2]; 2 mg/kg oral) was 66.9%, the “% INHIBITION OF EDEMA (3 HR. READING)” value ([2]; 2 mg/kg oral, rat) was 25.1% and the “% INCREASE IN PAW SIZE OVER NORMAL” value ([2]; 4 mg/kg oral) was 55.3%. The “% INHIBITION OF EDEMA (3 HR. READING)” value ([2]; 4 mg/kg oral, rat) was 38.1%, the “% INCREASE IN PAW SIZE OVER NORMAL” value ([2]; 8 mg/kg oral) was 50.0% and the “% INHIBITION OF EDEMA (3 HR. READING)” value ([2]; 8 mg/kg oral, rat) was 44.0%. The “% INCREASE IN PAW SIZE OVER NORMAL” value ([2]; 16 mg/kg oral) was 33.1%, the “% INHIBITION OF EDEMA (3 HR. READING)” value ([2]; 16 mg/kg oral, rat) was 62.9% and the ED25 ([2]; oral, rat, carrageenin paw edema, limits in parentheses) was 2.04 (0.34, 3.55).

For CN(C)CCC(c1ccc(Cl)cc1)c1ccccn1 (racemic) [chlorpheninamine, reference compound], the “activity in the reverse passive Arthus reaction” value ([1]; 10 mg/kg, P.O.) was “completely inactive”.

CN1CCC(=C2c3ccccc3C=Cc3ccccc32)CC1 [cyproheptadine, reference compound] was tested, and the “activity in the reverse passive Arthus reaction” value ([1]; 5 mg/kg P.O.) was “completely inactive”.

Reference: patent publication US3966944A, “10 (N-methyl-4-piperidylidene)-10H[1]-benzopyrano[3,2-b]-pyridine as an analgesic, anti-inflammatory and agent against type III hypersensitivity disease” (Abbott Laboratories, priority 1975, dated 1976)
